According to ChEMBL document CHEMBL1154642, “Synthesis and biological evaluation of heterocyclic ring-substituted maslinic acid derivatives as novel inhibitors of protein tyrosine phosphatase 1B” (Bioorg Med Chem Lett, 2009):

Key:
Homo sapiens = species on record: Homo sapiens; assay: Selectivity, ratio of IC50 for GST-tagged human TCPTP to IC50 for GST-tagged human PTP 1B
[1] = biological target: T1, Tyrosine-protein phosphatase non-receptor type 2 (Homo sapiens, UniProt P17706); assay: Inhibition of GST-tagged human TCPTP
T1 sequence (P17706 whole entry): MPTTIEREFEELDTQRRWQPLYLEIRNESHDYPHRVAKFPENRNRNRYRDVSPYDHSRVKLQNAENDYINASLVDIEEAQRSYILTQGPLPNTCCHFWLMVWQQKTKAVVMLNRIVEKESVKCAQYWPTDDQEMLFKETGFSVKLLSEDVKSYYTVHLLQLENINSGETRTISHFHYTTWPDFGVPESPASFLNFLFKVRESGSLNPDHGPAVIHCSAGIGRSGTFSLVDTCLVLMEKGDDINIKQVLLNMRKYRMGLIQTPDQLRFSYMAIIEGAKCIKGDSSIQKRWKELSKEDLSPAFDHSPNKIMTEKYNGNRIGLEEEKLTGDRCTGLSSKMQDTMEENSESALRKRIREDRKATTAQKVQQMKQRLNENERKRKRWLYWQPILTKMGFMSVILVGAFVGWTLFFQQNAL

[2] = biological target: T2, Tyrosine-protein phosphatase non-receptor type 1 (Homo sapiens, UniProt P18031); assay: Inhibition of GST-tagged human PTP 1B
T2 sequence (P18031 whole entry): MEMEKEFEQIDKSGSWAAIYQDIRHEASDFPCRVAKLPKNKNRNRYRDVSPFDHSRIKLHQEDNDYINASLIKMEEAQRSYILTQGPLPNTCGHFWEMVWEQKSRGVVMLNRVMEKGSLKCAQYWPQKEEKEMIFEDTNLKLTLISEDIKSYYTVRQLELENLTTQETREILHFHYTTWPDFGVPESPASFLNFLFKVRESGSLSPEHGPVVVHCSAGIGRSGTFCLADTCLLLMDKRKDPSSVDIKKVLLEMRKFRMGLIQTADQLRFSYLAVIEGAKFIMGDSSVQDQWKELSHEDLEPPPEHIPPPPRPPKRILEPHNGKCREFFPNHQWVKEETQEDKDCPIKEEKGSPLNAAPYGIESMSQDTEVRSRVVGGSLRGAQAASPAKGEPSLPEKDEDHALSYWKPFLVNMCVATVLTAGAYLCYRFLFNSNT

[3] = biological target: Receptor-type tyrosine-protein phosphatase F (Homo sapiens, UniProt P10586); assay: Inhibition of GST-tagged human LAR
Sequence of Receptor-type tyrosine-protein phosphatase F (P10586 whole entry): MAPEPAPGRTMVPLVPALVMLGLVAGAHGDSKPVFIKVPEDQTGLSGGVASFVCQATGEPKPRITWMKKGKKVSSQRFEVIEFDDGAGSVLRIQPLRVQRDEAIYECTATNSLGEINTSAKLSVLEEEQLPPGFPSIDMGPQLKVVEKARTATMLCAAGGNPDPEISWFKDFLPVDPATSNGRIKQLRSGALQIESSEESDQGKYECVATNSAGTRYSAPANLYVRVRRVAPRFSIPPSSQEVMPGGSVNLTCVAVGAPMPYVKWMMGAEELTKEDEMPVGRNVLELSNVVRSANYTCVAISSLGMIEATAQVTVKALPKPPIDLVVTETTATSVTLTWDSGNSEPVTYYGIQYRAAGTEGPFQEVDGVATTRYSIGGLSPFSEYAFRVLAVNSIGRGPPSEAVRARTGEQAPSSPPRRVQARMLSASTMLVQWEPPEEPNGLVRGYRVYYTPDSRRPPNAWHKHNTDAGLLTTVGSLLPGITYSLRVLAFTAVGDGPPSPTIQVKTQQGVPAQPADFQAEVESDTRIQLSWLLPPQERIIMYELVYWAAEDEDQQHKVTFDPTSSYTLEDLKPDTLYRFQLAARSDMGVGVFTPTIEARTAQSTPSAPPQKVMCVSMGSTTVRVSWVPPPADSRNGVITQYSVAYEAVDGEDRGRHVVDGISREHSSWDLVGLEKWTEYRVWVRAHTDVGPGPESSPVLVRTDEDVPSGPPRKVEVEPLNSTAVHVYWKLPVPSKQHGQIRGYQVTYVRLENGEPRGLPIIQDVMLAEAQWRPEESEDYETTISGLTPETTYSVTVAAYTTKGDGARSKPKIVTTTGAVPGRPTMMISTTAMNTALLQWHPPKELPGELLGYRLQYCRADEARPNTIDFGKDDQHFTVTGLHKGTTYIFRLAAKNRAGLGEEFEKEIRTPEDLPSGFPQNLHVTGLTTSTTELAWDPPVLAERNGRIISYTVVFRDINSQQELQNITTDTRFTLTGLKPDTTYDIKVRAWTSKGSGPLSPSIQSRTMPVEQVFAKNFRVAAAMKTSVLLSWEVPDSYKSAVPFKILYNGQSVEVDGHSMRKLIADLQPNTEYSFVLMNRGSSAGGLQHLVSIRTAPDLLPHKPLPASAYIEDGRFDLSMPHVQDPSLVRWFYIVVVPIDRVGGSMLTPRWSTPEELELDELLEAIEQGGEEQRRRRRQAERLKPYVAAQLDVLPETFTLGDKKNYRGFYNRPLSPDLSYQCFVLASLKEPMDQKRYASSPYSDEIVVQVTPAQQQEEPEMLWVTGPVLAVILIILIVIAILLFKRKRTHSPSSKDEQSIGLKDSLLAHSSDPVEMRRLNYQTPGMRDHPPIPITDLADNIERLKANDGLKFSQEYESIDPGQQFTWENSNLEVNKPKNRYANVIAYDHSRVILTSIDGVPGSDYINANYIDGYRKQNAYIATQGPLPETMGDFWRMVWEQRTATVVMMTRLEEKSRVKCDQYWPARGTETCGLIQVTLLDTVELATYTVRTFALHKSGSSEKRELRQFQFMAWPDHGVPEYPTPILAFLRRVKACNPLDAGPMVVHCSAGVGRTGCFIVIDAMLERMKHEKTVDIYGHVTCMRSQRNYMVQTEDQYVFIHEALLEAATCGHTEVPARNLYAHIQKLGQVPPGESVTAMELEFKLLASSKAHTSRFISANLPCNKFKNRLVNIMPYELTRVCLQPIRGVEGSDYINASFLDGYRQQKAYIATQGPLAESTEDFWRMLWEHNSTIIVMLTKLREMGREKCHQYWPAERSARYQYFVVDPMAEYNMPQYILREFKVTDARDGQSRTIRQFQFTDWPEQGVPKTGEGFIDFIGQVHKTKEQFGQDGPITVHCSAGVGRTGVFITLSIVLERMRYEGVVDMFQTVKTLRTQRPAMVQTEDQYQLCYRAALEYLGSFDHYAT

[4] = biological target: T3, Tyrosine-protein phosphatase non-receptor type 11 (Homo sapiens, UniProt Q06124); assay: Inhibition of GST-tagged human SHP2
T3 sequence (Q06124 whole entry): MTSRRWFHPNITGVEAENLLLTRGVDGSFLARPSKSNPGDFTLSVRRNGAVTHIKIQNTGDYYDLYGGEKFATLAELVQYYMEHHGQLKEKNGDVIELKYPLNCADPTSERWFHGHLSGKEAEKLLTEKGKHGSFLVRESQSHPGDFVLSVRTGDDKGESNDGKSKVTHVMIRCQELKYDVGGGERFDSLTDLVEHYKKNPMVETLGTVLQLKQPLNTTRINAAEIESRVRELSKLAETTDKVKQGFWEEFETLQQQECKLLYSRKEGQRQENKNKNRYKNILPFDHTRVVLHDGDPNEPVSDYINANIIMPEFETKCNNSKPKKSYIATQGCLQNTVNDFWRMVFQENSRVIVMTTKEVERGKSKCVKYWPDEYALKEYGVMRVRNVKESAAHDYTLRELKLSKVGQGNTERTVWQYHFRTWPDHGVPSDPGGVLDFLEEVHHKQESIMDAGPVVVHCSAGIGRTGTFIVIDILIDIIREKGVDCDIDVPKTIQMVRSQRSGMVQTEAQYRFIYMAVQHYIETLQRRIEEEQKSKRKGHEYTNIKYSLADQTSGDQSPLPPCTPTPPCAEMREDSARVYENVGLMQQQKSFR

[5] = biological target: Tyrosine-protein phosphatase non-receptor type 6 (Homo sapiens, UniProt P29350); assay: Inhibition of GST-tagged human SHP1
Sequence of Tyrosine-protein phosphatase non-receptor type 6 (P29350 whole entry): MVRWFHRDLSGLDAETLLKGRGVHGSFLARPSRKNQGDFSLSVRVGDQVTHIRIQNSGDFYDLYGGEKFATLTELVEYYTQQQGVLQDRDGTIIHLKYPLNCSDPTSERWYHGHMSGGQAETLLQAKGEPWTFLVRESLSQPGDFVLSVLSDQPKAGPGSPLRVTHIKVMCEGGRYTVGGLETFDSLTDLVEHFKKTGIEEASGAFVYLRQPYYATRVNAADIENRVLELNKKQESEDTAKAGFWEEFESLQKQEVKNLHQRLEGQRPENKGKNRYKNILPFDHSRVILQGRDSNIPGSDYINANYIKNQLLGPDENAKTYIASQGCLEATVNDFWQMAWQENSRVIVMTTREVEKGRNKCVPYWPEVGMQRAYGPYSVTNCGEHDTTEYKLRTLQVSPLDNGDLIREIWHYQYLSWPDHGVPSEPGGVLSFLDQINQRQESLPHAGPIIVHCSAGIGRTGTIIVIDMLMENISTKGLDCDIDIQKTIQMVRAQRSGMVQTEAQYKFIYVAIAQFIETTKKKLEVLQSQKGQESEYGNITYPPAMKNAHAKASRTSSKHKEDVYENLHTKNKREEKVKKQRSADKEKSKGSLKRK

[6] = Inhibition of glycogen phosphorylase

Compound | Ratio IC50 (Homo sapiens) | IC50 [1] | IC50 [2] | IC50 [3] | IC50 [4] | IC50 [5] | IC50 [6]
CCCCCC(=O)n1ncc2c1C(C)(C)[C@@H]1CC[C@]3(C)[C@H](CC=C4[C@@H]5CC(C)(C)CC[C@]5(C(=O)O)CC[C@]43C)[C@@]1(C)C2 | 3.2 | 5.56 µM | 1.75 µM |  |  |  | 
CC1(C)CC[C@]2(C(=O)O)CC[C@]3(C)C(=CC[C@@H]4[C@@]5(C)Cc6cn[nH]c6C(C)(C)[C@@H]5CC[C@]43C)[C@@H]2C1 | 3.6 | 5.99 µM | 1.65 µM | > 40 µM | > 40 µM | > 40 µM | 
O=C(O)C(=O)c1ccc(OCc2ccc(COc3ccc(C(=O)C(=O)O)cc3)cc2)cc1 | 1.6 | 6.24 µM | 3.89 µM |  |  |  | 
Cc1ncc2c(n1)C(C)(C)[C@@H]1CC[C@]3(C)[C@H](CC=C4[C@@H]5CC(C)(C)CC[C@]5(C(=O)O)CC[C@]43C)[C@@]1(C)C2 | 2.5 | 6.5 µM | 2.61 µM |  |  |  | 
CC1(C)CC[C@]2(C(=O)O)CC[C@]3(C)C(=CC[C@@H]4[C@@]5(C)Cc6cnc(N)nc6C(C)(C)[C@@H]5CC[C@]43C)[C@@H]2C1 | 3.1 | 5.51 µM | 1.78 µM |  |  |  | 
CC1(C)CC[C@]2(C(=O)O)CC[C@]3(C)C(=CC[C@@H]4[C@@]5(C)Cc6nccnc6C(C)(C)[C@@H]5CC[C@]43C)[C@@H]2C1 | 4.6 | 8.31 µM | 1.79 µM | > 40 µM | > 40 µM | > 40 µM | 
CC1(C)CC[C@]2(C(=O)O)CC[C@]3(C)C(=CC[C@@H]4[C@@]5(C)C[C@@H](O)[C@@H](O)C(C)(C)[C@@H]5CC[C@]43C)[C@@H]2C1 |  |  | 14.3 µM |  |  |  | 
CC1(C)CC[C@]2(C(=O)O)CC[C@]3(C)C(=CC[C@@H]4[C@@]5(C)Cc6cnoc6C(C)(C)[C@@H]5CC[C@]43C)[C@@H]2C1 | 3.3 | 8.44 µM | 2.6 µM | > 40 µM | > 40 µM | > 40 µM | 
CC(=O)n1ncc2c1C(C)(C)[C@@H]1CC[C@]3(C)[C@H](CC=C4[C@@H]5CC(C)(C)CC[C@]5(C(=O)O)CC[C@]43C)[C@@]1(C)C2 | 3.3 | 4.93 µM | 1.48 µM |  |  |  | 
CC1(C)CC[C@]2(C(=O)O)CC[C@]3(C)C(=CC[C@@H]4[C@@]5(C)Cc6c([nH]c7ccccc67)C(C)(C)[C@@H]5CC[C@]43C)[C@@H]2C1 | 2.6 | 1.6 µM | 0.61 µM |  |  |  | 
CNc1ncc2c(n1)C(C)(C)[C@@H]1CC[C@]3(C)[C@H](CC=C4[C@@H]5CC(C)(C)CC[C@]5(C(=O)O)CC[C@]43C)[C@@]1(C)C2 |  |  | 5.44 µM |  |  |  | 
CC1(C)CC[C@]2(C(=O)O)CC[C@]3(C)C(=CC[C@@H]4[C@@]5(C)Cc6sc(N)nc6C(C)(C)[C@@H]5CC[C@]43C)[C@@H]2C1 | 3.4 | 6.44 µM | 1.92 µM | > 40 µM | > 40 µM | > 40 µM | 
CC1(C)CC[C@]2(C(=O)O)CC[C@]3(C)C(=CC[C@@H]4[C@@]5(C)C[C@H](O)[C@H](O)C(C)(C)[C@@H]5CC[C@]43C)[C@@H]2C1 [AUGUSTIC ACID] |  |  | 4.93 µM |  |  |  | 
CC1(C)CC[C@]2(C(=O)O)CC[C@]3(C)C(=CC[C@@H]4[C@@]5(C)C[C@@H](O)[C@H](O)C(C)(C)[C@@H]5CC[C@]43C)[C@@H]2C1 [MASLINIC ACID] | 3.3 | 19.5 µM | 5.93 µM | > 40 µM | > 40 µM | > 40 µM | 28 µM
CC1(C)CC[C@]2(C(=O)O)CC[C@]3(C)C(=CC[C@@H]4[C@@]5(C)Cc6cnn(C(=O)c7cccnc7)c6C(C)(C)[C@@H]5CC[C@]43C)[C@@H]2C1 | 6.9 | 4.39 µM | 0.64 µM |  |  |  | 
CC1(C)CC[C@]2(C(=O)O)CC[C@]3(C)C(=CC[C@@H]4[C@@]5(C)Cc6cncnc6C(C)(C)[C@@H]5CC[C@]43C)[C@@H]2C1 | 3 | 8.19 µM | 2.73 µM | > 40 µM | > 40 µM | > 40 µM | 
CC1(C)CC[C@]2(C(=O)O)CC[C@]3(C)C(=CC[C@@H]4[C@@]5(C)Cc6cnn(C(=O)c7ccncc7)c6C(C)(C)[C@@H]5CC[C@]43C)[C@@H]2C1 | 4.5 | 3.62 µM | 0.81 µM |  |  |  | 
CC1(C)CC[C@]2(C(=O)O)CC[C@]3(C)C(=CC[C@@H]4[C@@]5(C)Cc6cnn(-c7ccccc7)c6C(C)(C)[C@@H]5CC[C@]43C)[C@@H]2C1 | 2.7 | 3.8 µM | 1.39 µM | > 40 µM | > 40 µM | > 40 µM | 
CC1(C)CC[C@]2(C(=O)O)CC[C@]3(C)C(=CC[C@@H]4[C@@]5(C)Cc6nc7ccccc7nc6C(C)(C)[C@@H]5CC[C@]43C)[C@@H]2C1 | 4.1 | 5.88 µM | 1.43 µM | > 40 µM | > 40 µM | > 40 µM | 
